# Experimental data published in US20180169136A1, “USE OF PHARMACEUTICAL COMPOSITION IN PREPARATION OF DRUG FOR PROMOTING CHONDROCYTE GENERATION” (KAOHSIUNG MEDICAL UNIVERSITY, priority 2015, published 2018).
# “And” between values parts separate entries of the source, which are not always exact repeats. Equal values may be shown once.
# Experiments:
# [1] = tested on: human adipose-derived stem cells (hADSCs); assay: sGAG formation (DMMB analysis) in hADSCs cultured in wells coated with or without hyaluronic acid; assay type: cell-based; conditions: day 7, standardized with DNA
# Procedure: Sulfated glycosaminoglycan (sGAG) is a major extracellular matrix of articular cartilage. In order to test whether simvastatin can promote the expression of sGAG in human adipose-derived stem cells (hADSCs) and its optimal concentration, the present invention first prepared hyaluronic acid (HA) coated wells by coating hyaluronic acid dissolved in 1 ml of phosphate buffer (PBS, 1% w/w) on a 24-well plate, standing at 37° C. for 48 hours, then washed with PBS two times. Human adipose-derived stem cells were seeded in wells containing 500 μl of basal medium at a density of 1×10^5 cells per well, wherein the basal medium contains Dulbecco's modified Eagle's medium (DMEM), and was additionally supplemented with 5% fetal bovine serum (FBS), 1% nonessential amino acids and 100 U/ml of penicillin/streptomycin (Gibco-BRL, Grand Island, N.Y.). During the culturing period, simvastatin at different concentrations (0.1 to 1 μM) was added to the well plate, and the medium was replaced with fresh one every two days. On day 7 after the cultivation started, cells were collected for dimethylmethylene blue (DMMB) analysis with Blyscan sulfated glycosaminoglycan reagent (Biocolor, Antrim, UK), and for standardization of sulfated glycosaminoglycan (sGAG) formation with DNA.
# Sox-9 = assay: real-time PCR, chondrogenic gene Sox-9 in hADSCs in HA-coated or non-coated wells; assay type: cell-based, human; conditions: 1 μM simvastatin, with or without 1% HA coating, 1 to 5 days
# Procedure: (§1) Human adipose-derived stem cells (hADSCs) were cultured in wells coated with hyaluronic acid (HA) and without hyaluronic acid (non-HA), and treated with or without 1 μM of simvastatin (SIM) for 1 to 5 days. […]
# (§2) Cells were harvested on designated days and analyzed for the expression of BMP-2 and chondrogenic genes using real-time PCR. […] Real-time PCR reactions were performed and monitored by using iQTM SYBR Green® supermix (Bio-Rad Laboratories Inc, Hercules, Calif.) and a quantitative real-time PCR detection system (Bio-Rad Laboratories Inc, Hercules, Calif.). […] The expression level of each of the target genes, as previously described, was calculated as 2-ΔΔCt. For each gene of interest, four readings were performed for each of the experimental samples, each experiment was repeated for at least three times. […]
# aggrecan = assay: real-time PCR, chondrogenic gene aggrecan in hADSCs in HA-coated or non-coated wells; assay type: cell-based, human; conditions: 1 μM simvastatin, with or without 1% HA coating, 1 to 5 days
# Procedure: as §1, §2
# Col II = assay: real-time PCR, chondrogenic gene Col II in hADSCs in HA-coated or non-coated wells; assay type: cell-based, human; conditions: 1 μM simvastatin, with or without 1% HA coating, 1 to 5 days
# Procedure: as §1, §2
# BMP-2 = assay: real-time PCR, BMP-2 gene expression in hADSCs in HA-coated or non-coated wells; assay type: cell-based, human; conditions: relative to Non-HA group day 1 = 1, simvastatin 1 μM, HA 1%
# Procedure: Human adipose-derived stem cells (hADSCs) were cultured in wells coated with hyaluronic acid (HA) and without hyaluronic acid (non-HA), and treated with or without 1 μM of simvastatin (SIM) for 1 to 5 days. The present invention was therefore divided into four experimental groups: (1) No hyaluronic acid (Non-HA) group: human adipose-derived stem cells were cultured in wells not coated with hyaluronic acid and not treated with simvastatin (1 μM); (2) No hyaluronic acid plus simvastatin (Non-HA+Sim) group: human adipose-derived stem cells were cultured in wells not coated with hyaluronic acid but treated with simvastatin (1 μM); (3) Hyaluronic acid (HA) group: human adipose-derived stem cells were cultured in wells coated with hyaluronic acid but not treated with simvastatin (1 μM); and (4) Hyaluronic acid plus simvastatin (HA+Sim) group: human adipose-derived stem cells were cultured in wells coated with hyaluronic acid and treated with simvastatin (1 μM).
# Cells were harvested on designated days and analyzed for the expression of BMP-2 and chondrogenic genes using real-time PCR. Total RNA of these cells was extracted by following the manufacturer's instructions and using TRIzol reagent (Gibco BRL, Rockville, Md.). In short, a reaction volume of 20 μl was taken which contained 0.5 to 1 μg of total RNA, and then RNA was reverse-transcribed into cDNA by using the SuperScript First-Strand Synthesis System (Invitrogen). Real-time PCR reactions were performed and monitored by using iQTM SYBR Green® supermix (Bio-Rad Laboratories Inc, Hercules, Calif.) and a quantitative real-time PCR detection system (Bio-Rad Laboratories Inc, Hercules, Calif.). […] The expression level of each of the target genes, as previously described, was calculated as 2-ΔΔCt. For each gene of interest, four readings were performed for each of the experimental samples, each experiment was repeated for at least three times. […]
# osteocalcin = assay: real-time PCR, osteocalcin gene expression in hADSCs in HA-coated or non-coated wells; assay type: cell-based, human; conditions: day 1 to day 5; relative to Non-HA group day 1 = 1; simvastatin 1 μM
# Procedure: as §1, §2
smiles,measurement,setting,value
CCC(C)(C)C(=O)O[C@H]1C[C@@H](C)C=C2C=C[C@H](C)[C@H](CC[C@@H]3C[C@@H](O)CC(=O)O3)[C@H]21 [simvastatin],expression level of sGAG,"[1]; absence of hyaluronic acid (Non-HA), simvastatin 0.1 μM",0.5 µg/µg
same,expression level of sGAG,"[1]; absence of hyaluronic acid (Non-HA), simvastatin 0.5 μM",0.5 µg/µg
same,expression level of sGAG,"[1]; absence of hyaluronic acid (Non-HA), simvastatin 1 μM",0.7 µg/µg
same,expression level of sGAG,"[1]; presence of 1% hyaluronic acid, simvastatin 0.1 μM",1.3 µg/µg
same,expression level of sGAG,"[1]; presence of 1% hyaluronic acid, simvastatin 0.5 μM",2.5 µg/µg
same,expression level of sGAG,"[1]; presence of 1% hyaluronic acid, simvastatin 1 μM",2.8 µg/µg
same,expression of chondrogenic gene Sox-9,Sox-9,failed to effectively enhance
same,expression of chondrogenic gene aggrecan,aggrecan,failed to effectively enhance
same,expression of chondrogenic gene Col II,Col II,failed to effectively enhance
same,expression of BMP-2 gene,BMP-2; day 1,1.2 fold
same,expression of BMP-2 gene,BMP-2; day 3,0.8 fold
same,expression of BMP-2 gene,"BMP-2; day 5, listed as Non-HA+Sim",1.1 fold and 2.1 fold
same,expression of osteocalcin gene,osteocalcin,significantly increased
